Test results published in patent US11903387B2 (priority 2016, dated 2024).
Like-named read-outs stand apart in the source and are kept apart here.

Experiments:
[1] = system: Pseudoperonospora cubensis; assay: Test 2: control effect against cucumber downy mildew; format: in vivo
Phytophthora infestans = assay: whole plant or invertebrate; format: in vivo
[2] = Pseudoperonospora cubensis, applied alone, 10 ppm, read-out: Test 2 preventive value, Measured
[3] = Pseudoperonospora cubensis, applied alone, 50 ppm, read-out: Test 2 preventive value, Measured
[4] = Phytophthora infestans, in Solanum lycopersicum, read-out: Test 1 preventive value, Measured, applied alone, 10 ppm
[5] = Phytophthora infestans, in Solanum lycopersicum, read-out: Test 1 preventive value, Measured, applied alone, 50 ppm
[6] = component (b) alone 0.4 ppm, average of three repeats
[7] = component (b) alone 2 ppm, average of three repeats
[8] = component (b) alone 10 ppm, average of three repeats

Compound: CCNC(=O)NC(=O)/C(C#N)=N/OC [Cymoxanil]
- Test 2 Measured preventive value ([1]; component (b) alone, 2 ppm): 0
- Test 2 Measured preventive value ([1]; component (b) alone, 10 ppm): 0
- Test 2 Measured preventive value ([1]; component (b) alone, 50 ppm): 46.3
- pest or weed control at 2 ppm (Phytophthora infestans; Phytophthora infestans, in Solanum lycopersicum, read-out: Test 1 Measured preventive value, component (b) alone, 2 ppm): 31.7%
- pest or weed control at 10 ppm (Phytophthora infestans; Phytophthora infestans, in Solanum lycopersicum, read-out: Test 1 Measured preventive value, component (b) alone, 10 ppm): 78.3%
- pest or weed control at 50 ppm (Phytophthora infestans; Phytophthora infestans, in Solanum lycopersicum, read-out: Test 1 Measured preventive value, component (b) alone, 50 ppm): 100%

Compound: CS(=O)(=O)Oc1ccc(F)c2c1COC(c1csc(C3CCN(C(=O)Cn4nc(C(F)F)cc4C(F)F)CC3)n1)OC2 (centres unmarked) [Compound 1-62, 4-[4-(6-fluoro-9-methylsulfonyloxy-1,5-dihydro-3H-2,4-benzodioxepin-3-yl)-2-thiazolyl]-1-[2-[3,5-bis(difluoromethyl)-1H-pyrazol-1-yl]acetyl]piperidine]
- pest or weed control at 0.0024 ppm ([1]; Pseudoperonospora cubensis, Compound 1-62 alone, 0.0024 ppm, read-out: Test 2 Measured): 86%
- pest or weed control at 0.012 ppm ([1]; Pseudoperonospora cubensis, Compound 1-62 alone, 0.012 ppm, read-out: Test 2 Measured): 100%
- pest or weed control at 0.06 ppm ([1]; Pseudoperonospora cubensis, Compound 1-62 alone, 0.06 ppm, read-out: Test 2 Measured): 100%
- pest or weed control at 0.0024 ppm (Phytophthora infestans; Phytophthora infestans, in Solanum lycopersicum, read-out: Test 1 Measured, Compound 1-62 alone, 0.0024 ppm): 59%
- pest or weed control at 0.012 ppm (Phytophthora infestans; Phytophthora infestans, in Solanum lycopersicum, read-out: Test 1 Measured, Compound 1-62 alone, 0.012 ppm): 98%
- pest or weed control at 0.06 ppm (Phytophthora infestans; Phytophthora infestans, in Solanum lycopersicum, read-out: Test 1 Measured, Compound 1-62 alone, 0.06 ppm): 100%

Compound: CC(C)CC(C)c1sccc1NC(=O)c1cn(C)nc1C(F)(F)F (centres unmarked) [Penthiopyrad]
- pest or weed control at 10 ppm [1, 2]: 0%
- pest or weed control at 50 ppm [1, 3]: 0%
- pest or weed control at 250 ppm ([1]; Pseudoperonospora cubensis, applied alone, 250 ppm, read-out: Test 2 preventive value, Measured): 27.5%
- pest or weed control at 10 ppm (Phytophthora infestans; [4]): 0%
- pest or weed control at 50 ppm (Phytophthora infestans; [5]): 0%
- pest or weed control at 250 ppm (Phytophthora infestans; Phytophthora infestans, in Solanum lycopersicum, read-out: Test 1 preventive value, Measured, applied alone, 250 ppm): 0%

Compound: CCCCCCCCc1c(CC)nc2ncnn2c1N [Ametoctradin]
- Test 2 Measured ([1]; component (b) alone, 0.4 ppm): 77.5
- Test 2 Measured ([1]; component (b) alone, 2 ppm): 95
- Test 2 Measured ([1]; component (b) alone, 10 ppm): 98.8
- Test 1 Measured (Phytophthora infestans; component (b) alone, 0.4 ppm): 0.0
- Test 1 Measured (Phytophthora infestans; component (b) alone, 2 ppm): 18.3
- Test 1 Measured (Phytophthora infestans; component (b) alone, 10 ppm): 95.7

Compound: CO/N=C(/C(=O)OC)c1ccccc1COc1ccccc1C [Kresoxim-methyl]
- pest or weed control at 2 ppm ([1]; Pseudoperonospora cubensis, applied alone, 2 ppm, read-out: Test 2 preventive value, Measured): 0%
- pest or weed control at 10 ppm [1, 2]: 7.5%
- pest or weed control at 50 ppm [1, 3]: 2.5%
- pest or weed control at 2 ppm (Phytophthora infestans; Phytophthora infestans, in Solanum lycopersicum, read-out: Test 1 preventive value, Measured, applied alone, 2 ppm): 50%
- pest or weed control at 10 ppm (Phytophthora infestans; [4]): 90.7%
- pest or weed control at 50 ppm (Phytophthora infestans; [5]): 99.8%

Compound: Basic copper sulfate
- Test 2 Measured ([1]; component (b) alone, 20 ppm): 32
- Test 2 Measured preventive value ([1]; component (b) alone, 20 ppm): 18.8
- Test 2 Measured ([1]; component (b) alone, 100 ppm): 80.9
- Test 2 Measured preventive value ([1]; component (b) alone, 100 ppm): 82
- Test 2 Measured ([1]; component (b) alone, 500 ppm): 95
- Test 2 Measured preventive value ([1]; component (b) alone, 500 ppm): 97
- Test 1 Measured (Phytophthora infestans; component (b) alone, 20 ppm): 55
- Test 1 Measured preventive value (Phytophthora infestans; component (b) alone, 20 ppm): 71.7
- Test 1 Measured (Phytophthora infestans; component (b) alone, 100 ppm): 90.7
- Test 1 Measured preventive value (Phytophthora infestans; component (b) alone, 100 ppm): 92.5
- Test 1 Measured (Phytophthora infestans; component (b) alone, 500 ppm): 100
- Test 1 Measured preventive value (Phytophthora infestans; component (b) alone, 500 ppm): 100

Compound: CC(C)(C)C(O)(CCc1ccc(Cl)cc1)Cn1cncn1 (centres unmarked) [Tebuconazole]
- pest or weed control at 20 ppm ([1]; Pseudoperonospora cubensis, component (b) alone 20 ppm, read-out: Test 2 Measured): 0%
- pest or weed control at 100 ppm ([1]; Pseudoperonospora cubensis, component (b) alone 100 ppm, read-out: Test 2 Measured): 10%
- pest or weed control at 500 ppm ([1]; Pseudoperonospora cubensis, component (b) alone 500 ppm, read-out: Test 2 Measured): 97%
- pest or weed control at 20 ppm (Phytophthora infestans; Phytophthora infestans, in Solanum lycopersicum, read-out: Test 1 Measured, component (b) alone 20 ppm): 0%
- pest or weed control at 100 ppm (Phytophthora infestans; Phytophthora infestans, in Solanum lycopersicum, read-out: Test 1 Measured, component (b) alone 100 ppm): 0%
- pest or weed control at 500 ppm (Phytophthora infestans; Phytophthora infestans, in Solanum lycopersicum, read-out: Test 1 Measured, component (b) alone 500 ppm): 16.7%

Compound: CCO[PH](=O)O [Fosetyl-aluminum]
- Test 2 Measured ([1]; component (b) alone 80 ppm): 0
- Test 2 Measured ([1]; component (b) alone 400 ppm): 22.5
- Test 2 Measured ([1]; component (b) alone 2000 ppm): 49
- Test 1 Measured (Phytophthora infestans; component (b) alone 80 ppm): 31.7
- Test 1 Measured (Phytophthora infestans; component (b) alone 400 ppm): 85.7

Compound: COC(=O)CC(NC(=O)[C@@H](NC(=O)OC(C)C)C(C)C)c1ccc(Cl)cc1 (some centres unmarked) [Valifenalate]
- Test 2 Measured preventive value [1, 6]: 0
- Test 2 Measured preventive value [1, 7]: 57.5
- Test 2 Measured preventive value [1, 8]: 93.5
- Test 2 Measured ([1]; component (b) alone, 0.4 ppm): 4
- Test 2 Measured preventive value ([1]; component (b) alone, 0.4 ppm): 0
- Test 2 Measured ([1]; component (b) alone, 2 ppm): 51.8
- Test 2 Measured preventive value ([1]; component (b) alone, 2 ppm): 57.5
- Test 2 Measured ([1]; component (b) alone, 10 ppm): 93
- Test 2 Measured preventive value ([1]; component (b) alone, 10 ppm): 93.5
- Test 1 Measured preventive value (Phytophthora infestans; [6]): 20.0
- Test 1 Measured preventive value (Phytophthora infestans; [7]): 51.7
- Test 1 Measured preventive value (Phytophthora infestans; [8]): 96.2
- Test 1 Measured (Phytophthora infestans; component (b) alone, 0.4 ppm): 10.0
- Test 1 Measured preventive value (Phytophthora infestans; component (b) alone, 0.4 ppm): 20.0
- Test 1 Measured (Phytophthora infestans; component (b) alone, 2 ppm): 45.2
- Test 1 Measured preventive value (Phytophthora infestans; component (b) alone, 2 ppm): 51.7
- Test 1 Measured (Phytophthora infestans; component (b) alone, 10 ppm): 97.0
- Test 1 Measured preventive value (Phytophthora infestans; component (b) alone, 10 ppm): 96.2

Compound: CCNc1nc(CC)c(C(=O)NC(C#N)c2cccs2)s1 (centres unmarked) [Ethaboxam]
- Test 2 Measured preventive value ([1]; component (b) alone, 2 ppm): 88.3
- Test 2 Measured preventive value ([1]; component (b) alone, 10 ppm): 99.5
- Test 2 Measured preventive value ([1]; component (b) alone, 50 ppm): 100
- Test 1 Measured preventive value (Phytophthora infestans; component (b) alone, 2 ppm): 95
- Test 1 Measured preventive value (Phytophthora infestans; component (b) alone, 10 ppm): 98.3
- Test 1 Measured preventive value (Phytophthora infestans; component (b) alone, 50 ppm): 97.8
